Results from patent publication US9586914B2, “Modulators of C3a receptors” (THE UNIVERSITY OF QUEENSLAND, priority 2011, dated 2017).
Entries after “also recorded” stand apart in the source; their conditions may differ.

Tests used:
[1] = tested on: IL1B, IL8, CCL3, EGR1, FOSB and TNF gene expression in HMDMs; experiment: Regulation of inflammatory genes in HMDM (qRT-PCR); format: cell-based, human; settings: HMDMs, 300 nM, 30 minutes; qRT-PCR, fold change from control
Text: Human monocyte-derived macrophages (HMDMS) were isolated from buffy coat of anonymous donors provided by the Australian Red Cross Blood Service at Kelvin Grove, Queensland, Australia. White blood cells were separated from other blood components into different layers using Ficoll-Paque Plus Density Centrifugation (GE Healthcare Bio-Science, Uppsala, Sweden) according to manufacturer's instruction. The isolated white blood cells were repeatedly washed with ice-cold water to remove contaminating erythrocytes. CD14^+ monocytes were positively selected from white blood cells using CD14^+ Macs Magnetic Beads (Miltenyi biotech, Auburn, Calif., USA) after successive magnetic sorting and washings. CD14^+ monocytes (1.5×10^6 cells/mL) were seeded in 10 mL of IMDM supplemented with 10% fetal calf serum (FBS), 10 U/mL streptomycin, 10 U/mL penicillin and 2 mmol L-glutamine (Invitrogen). To generate HMDMS, […] of recombinant human macrophage colony stimulating factor (M-CSF) (Peprotech Inc., rocky Hill, N.J., USA) was added for differentiation. HMDMS were maintained at 37° C. in a humidified incubator with 5% CO2 for a week to fully differentiate. At day 7, the adhered HMDMS were harvested by gentle scraping in saline solution.
HMDMs (2×10^6) in 2 mL of IMDM medium were transferred into each well on a 6-well plate. The cells were left to incubate for 6 h to allow adhesion before being serum starved in serum free IMDM to reduce background noise of the C3a treatment. In the time response experiment, cells were treated with 10 nM of C3a or agonist (compound 8 or 64) for 0.5, 1, 2 or 6 h. In concentration response experiments, cells were treated with 1, 10, 100 or 300 nM for 1 h. To prepare the samples for the microarray experiments, cells were treated with agonist at 100-300 nM for 30 min or 1 h in the absence or presence of the antagonist (e.g. SB-290157 or antagonists). […] Cells were washed with saline solution at the end of each treatment before the RNA extraction step.
Total RNA was extracted from cells using RNeasy Mini Plus kit (Qiagen, USA) according to the manufacturer's instructions. The concentration of the RNA was determined by measuring absorbance at λ=260/280 […] on a nanodrop spectrophotometer (Thermo Scientific), according to the manufacturer's instructions.
Total RNA (2-5 μg) was reverse transcribed with Superscript III (Invitrogen, USA) using random oligo dT primer. Reagents were incubated (50 min, 50° C.; then 10 min, 70° C.) in thermal cyclers (Bio-Rad) to complete the reaction, cDNA samples were stored at −20° C. until further use. All RNA work was performed on ice (4° C.) to prevent degradation of the RNA samples.
cDNA (0.5 μg) samples were prepared with 5 μL SYBR® Green PCR master mix (Applied Biosystems™, CA, USA), 2 μL relevant primers (2 μM) and 1 μL dH2O before being analysed using an ABI 7900HT Fast Real-Time PCR System (Applied Biosystems™, CA, USA) according to the manufacturer's specifications. Fluorescence data was collected during the extension phase (60° C.). The concentration response data for each sample was then normalised against the same data for control housekeeping gene, (18S) to quantify and generate gene expression data. All samples were done in at least duplicate. Primers were designed using the Primer-BLAST software (National Center for Biotechnology Information, USA). Primers contained, amplicons that cross exon-exon boundaries to prevent amplification of genomic DNA. […]

[2] = tested on: human kidney tubule cells; experiment: ELISA of cytokines from human kidney tubule cells; format: cell-based; settings: for IL-8: 0 μM gives 1.8 ± 0.3; for IL-6: 0 μM gives 2.4 ± 0.4; for TNF: 0 μM gives 10.1 ± 2; for GMCSF (pg/ml/ml): 0 μM gives 71.3 ± 23; for Fibronectin: 0 μM gives 75.2 ± 29
Description: Human renal cortical tissue (10 g) was minced finely, washed several times and agitated for 20 minutes at 37° C. in a Krebs-Henseleit buffer (KHB) containing collagenase type II (1 mg/mL), Cold KHB was added and the solution passed through a 297 μm sieve (50 Mesh, Sigma). After washing three times the tubular fragments were re-suspended in 45% percoll-KHB and centrifuged at 20000×g. A high density band, previously shown to be tubule fragments, was removed and cultured in a serum free, hormonally defined DMEM/F12 media (containing 10 ng/mL epidermal growth factor, 5 μg/mL insulin, […] transferrin, 50 nM hydrocortisone, […] prostaglandin E1, 50 nM selenium and 5 pM triiodothyronine). All experiments were performed on confluent passage 2 HTEC made quiescent by two washes followed by incubation for 24 h in serum and growth factor free DMEM/F12 media. These cells were incubated with C3aR agonists and antagonists.
Supernatant and lysates from cell culture treatment samples were collected and stored separately at −20° C. until further use. Human IL1B, IL8, IL6 and TNF levels were determined using the respective OptEIA™ ELISA kit (BD Biosciences, San Diego, USA) according to the manufacturer's instructions. The readings were recorded on a FLUOstar Optima (BMG LabTechnologies, Offenburg, Germany).

## CC(C)C[C@H](NC(=O)c1c[nH]c2ccccc12)c1nc(C(=O)N[C@@H](CCCNC(=N)N)C(=O)O)co1 [Compound 8, 3-Indole Carboxylic Acid-Leucine-Oxazole-Arginine-OH]
[1]
  Induction of gene expression of IL1B, IL8, CCL3, EGR1, FOSB and TNF: significantly induce gene expression; also recorded: induced expression of inflammatory genes
[2]; compound 8 at 1 μM
  IL-8: 1.9 ± 0.4 ng/mL
  IL-6: 2.5 ± 0.1 ng/mL
  TNF: 9.9 ± 1 pg/mL
  GMCSF (pg/ml/ml): 74.6 ± 7.1 pg/ml/ml
  Fibronectin: 89.6 ± 11 ng/mL
[2]; compound 8 at 2.5 μM
  IL-8: 5.7 ± 2 ng/mL
  IL-6: 8.2 ± 0.6 ng/mL
  TNF: 12.3 ± 1 pg/mL
  GMCSF (pg/ml/ml): 142.8 ± 10.9 pg/ml/ml
  Fibronectin: 89.0 ± 5 ng/mL
[2]; compound 8 at 5 μM
  IL-8: 31.5 ± 5 ng/mL
  IL-6: 30.9 ± 2.5 ng/mL
  TNF: 76.6 ± 13 pg/mL
  GMCSF (pg/ml/ml): 738.0 ± 127.6 pg/ml/ml
  Fibronectin: 149.5 ± 21 ng/mL
[2]; compound 8 at 10 μM
  IL-8: 30.4 ± 8 ng/mL
  IL-6: 33.5 ± 5 ng/mL
  TNF: 117.8 ± 53 pg/mL
  GMCSF (pg/ml/ml): 1056 ± 147.8 pg/ml/ml
  Fibronectin: 172.9 ± 20 ng/mL
[2]; compound 8 at 20 μM
  IL-8: 76.4 ± 18 ng/mL
  IL-6: 55.8 ± 12 ng/mL
  TNF: 277.9 ± 28 pg/mL
  GMCSF (pg/ml/ml): 2853 ± 399 pg/ml/ml
  Fibronectin: 200.9 ± 28 ng/mL
[2]; compound 8 at 40 μM vs 0 μM
  Induction at 40 μM, Fibronectin: 2-fold
  Induction at 40 μM, GMCSF: 80-fold
  Induction at 40 μM, IL-6: 40-fold
  Induction at 40 μM, IL-8: 75-fold
  Induction at 40 μM, TNF: 75-fold
[2]; compound 8 at 40 μM
  IL-8: 135.0 ± 9 ng/mL
  IL-6: 96.9 ± 29 ng/mL
  TNF: 757.8 ± 13 pg/mL
  GMCSF (pg/ml/ml): 5790 ± 726 pg/ml/ml
  Fibronectin: 148.0 ± 32 ng/mL
[2]; primary human kidney cells
  Secretion of inflammatory cytokines: induces secretion of inflammatory cytokines
